PMC7339578, “Multiple circulating alkaloids and saponins from intravenous Kang-Ai injection inhibit human cytochrome P450 and UDP-glucuronosyltransferase isozymes: potential drug–drug interactions” (Chinese Medicine, 2020)
Read-outs that look alike come from different tables or passages of the source.

Experiments:
Format in all cases: in vitro ADME
CYP2B6 = target: T1, CYP2B6 (Homo sapiens, UniProt P20813); assay: Inhibition of recombinant CYP2B6 (probe bupropion)
T1 sequence (P20813 1-491): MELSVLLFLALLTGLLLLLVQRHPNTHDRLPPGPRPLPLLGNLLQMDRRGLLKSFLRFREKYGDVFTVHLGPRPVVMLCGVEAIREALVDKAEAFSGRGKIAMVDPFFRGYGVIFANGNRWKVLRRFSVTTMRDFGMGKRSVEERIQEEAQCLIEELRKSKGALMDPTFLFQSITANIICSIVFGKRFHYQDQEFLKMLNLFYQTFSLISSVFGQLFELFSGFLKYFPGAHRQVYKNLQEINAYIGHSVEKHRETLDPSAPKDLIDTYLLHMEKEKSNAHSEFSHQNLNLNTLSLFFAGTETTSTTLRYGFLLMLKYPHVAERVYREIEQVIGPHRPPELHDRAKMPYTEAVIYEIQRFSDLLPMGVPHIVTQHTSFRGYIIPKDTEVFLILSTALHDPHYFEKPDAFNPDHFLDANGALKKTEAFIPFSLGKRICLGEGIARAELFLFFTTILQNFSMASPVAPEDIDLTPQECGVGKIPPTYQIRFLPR
Procedure: (§1) In this study, phenacetin (100 μM), coumarin (100 μM), bupropion (100 μM), paclitaxel (60 μM), tolbutamide (200 μM), mephenytoin (100 μM), chlorzoxazone (200 μM) and nifedipine (40 μM) have been used as the probe substrates for CYP1A2, 2A6, 2B6, 2C8, 2C9, 2C19, 2E1 and 3A4, respectively.

CYP2C19 = CYP2C19 (Homo sapiens, UniProt P33261); assay: Inhibition of recombinant CYP2C19 (probe mephenytoin); settings: recombinant isozyme; mean ± SD of triplicate; unit not given (IC50 classes in μM); read-out: IC50 towards CYP2C19
Procedure: as §1

CYP3A4 = CYP3A4 (Homo sapiens, UniProt P08684); assay: Inhibition of recombinant CYP3A4 (probe nifedipine); settings: for IC50: read-out: IC50 towards CYP3A4
Procedure: as §1

[1] = Stability tests of analytes in rat plasma QC samples; settings: rat plasma
Procedure: […] The dilution integrity was investigated by analyzing six replicate samples with each analyte, and each analyte were diluted 10-fold with blank rat matrix. Furthermore, the diluted samples were analyzed using freshly prepared calibration curve to calculate RE and RSD, which should be no more than ± 15% as criterion.

UGT1A1 = target: T2, UGT1A1 (Homo sapiens, UniProt P22309); assay: Inhibition of expressed UGT1A1 (probe β-estradiol); settings: recombinant isozyme; mean ± SD of triplicate; unit not given (IC50 classes in μM); read-out: IC50 towards UGT1A1
T2 sequence (P22309 26-533): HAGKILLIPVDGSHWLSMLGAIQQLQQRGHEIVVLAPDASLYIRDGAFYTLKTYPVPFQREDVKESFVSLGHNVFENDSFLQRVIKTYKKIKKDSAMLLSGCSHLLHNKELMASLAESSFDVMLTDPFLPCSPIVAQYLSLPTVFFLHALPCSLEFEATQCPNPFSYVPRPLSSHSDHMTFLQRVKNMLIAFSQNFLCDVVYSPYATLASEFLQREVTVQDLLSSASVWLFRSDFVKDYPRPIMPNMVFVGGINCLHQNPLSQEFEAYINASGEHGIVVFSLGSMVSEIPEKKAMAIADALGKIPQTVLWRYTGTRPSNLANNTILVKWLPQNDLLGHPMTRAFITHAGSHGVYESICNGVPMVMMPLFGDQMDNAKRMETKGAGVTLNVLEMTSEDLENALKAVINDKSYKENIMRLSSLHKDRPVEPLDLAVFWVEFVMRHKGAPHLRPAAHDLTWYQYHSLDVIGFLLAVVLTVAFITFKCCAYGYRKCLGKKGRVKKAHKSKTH
Procedure: After centrifugation (13,800g, 10 min), the supernatant (8 μL) was obtained for determination by UHPLC system.
Similarly, β-estradiol (60 μM), propofol (40 μM) and 4-MU (350 μM) were typically used as the substrates for UGT1A1, 1A9 and 2B7, respectively. After optimization of incubation conditions (Additional file 1: Fig. S2), the protein concentrations for UGT1A1, 1A9, and 2B7 were 0.125, 0.05, and 0.05 mg/mL, respectively.

CYP1A2 = target: T3, CYP1A2 (Homo sapiens, UniProt P05177); assay: Inhibition of recombinant CYP1A2 (probe phenacetin); settings: recombinant isozyme; mean ± SD of triplicate; unit not given (IC50 classes in μM); read-out: IC50 towards CYP1A2
T3 construct: purchased Corning Biosciences 456203
T3 sequence (P05177 1-516): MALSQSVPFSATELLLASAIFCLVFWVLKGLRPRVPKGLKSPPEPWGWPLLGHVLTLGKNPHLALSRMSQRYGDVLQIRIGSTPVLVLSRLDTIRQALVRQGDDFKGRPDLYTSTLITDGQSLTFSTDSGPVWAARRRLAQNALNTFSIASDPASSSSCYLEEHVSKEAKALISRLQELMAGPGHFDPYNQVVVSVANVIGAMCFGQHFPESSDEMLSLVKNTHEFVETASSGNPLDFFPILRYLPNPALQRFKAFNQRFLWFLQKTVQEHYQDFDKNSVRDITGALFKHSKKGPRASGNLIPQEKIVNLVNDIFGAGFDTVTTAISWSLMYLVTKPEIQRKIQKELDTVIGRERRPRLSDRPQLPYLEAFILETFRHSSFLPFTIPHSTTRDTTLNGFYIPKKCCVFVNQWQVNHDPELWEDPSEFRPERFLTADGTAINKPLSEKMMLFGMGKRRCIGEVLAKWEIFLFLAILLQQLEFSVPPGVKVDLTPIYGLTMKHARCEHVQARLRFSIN
Procedure: as §1

CYP2C9 = CYP2C9 (Homo sapiens, UniProt P11712); assay: Inhibition of recombinant CYP2C9 (probe tolbutamide); settings: recombinant isozyme; mean ± SD of triplicate; unit not given (IC50 classes in μM); read-out: IC50 towards CYP2C9
Procedure: as §1

CYP3A4, sequence (P08684 whole entry): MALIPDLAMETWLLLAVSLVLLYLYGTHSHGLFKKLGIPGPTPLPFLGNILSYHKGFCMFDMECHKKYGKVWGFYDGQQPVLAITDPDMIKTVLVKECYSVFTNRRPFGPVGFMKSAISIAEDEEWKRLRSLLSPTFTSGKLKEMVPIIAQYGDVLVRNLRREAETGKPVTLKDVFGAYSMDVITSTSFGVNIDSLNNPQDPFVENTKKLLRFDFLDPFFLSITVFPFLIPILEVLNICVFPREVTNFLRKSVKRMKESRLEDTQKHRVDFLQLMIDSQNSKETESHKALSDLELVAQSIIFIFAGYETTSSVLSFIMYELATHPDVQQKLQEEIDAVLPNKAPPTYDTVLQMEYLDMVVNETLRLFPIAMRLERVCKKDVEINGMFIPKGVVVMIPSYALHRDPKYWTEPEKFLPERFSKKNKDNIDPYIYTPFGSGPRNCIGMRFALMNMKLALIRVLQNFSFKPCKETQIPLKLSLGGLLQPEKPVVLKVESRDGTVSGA
CYP2C9, sequence (P11712 whole entry): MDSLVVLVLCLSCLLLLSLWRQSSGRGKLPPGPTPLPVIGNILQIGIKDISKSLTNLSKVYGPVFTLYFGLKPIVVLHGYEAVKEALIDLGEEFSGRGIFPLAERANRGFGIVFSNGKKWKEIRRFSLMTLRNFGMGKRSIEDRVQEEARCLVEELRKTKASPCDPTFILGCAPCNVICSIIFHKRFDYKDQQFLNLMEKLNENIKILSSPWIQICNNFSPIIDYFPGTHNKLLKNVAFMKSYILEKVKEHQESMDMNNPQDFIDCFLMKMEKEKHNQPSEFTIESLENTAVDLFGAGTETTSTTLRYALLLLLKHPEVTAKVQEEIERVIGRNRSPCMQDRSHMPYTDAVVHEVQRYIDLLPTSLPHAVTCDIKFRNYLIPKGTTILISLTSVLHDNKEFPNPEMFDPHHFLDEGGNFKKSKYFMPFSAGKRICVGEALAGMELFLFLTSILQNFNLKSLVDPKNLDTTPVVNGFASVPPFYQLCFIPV
CYP2C19, sequence (P33261 whole entry): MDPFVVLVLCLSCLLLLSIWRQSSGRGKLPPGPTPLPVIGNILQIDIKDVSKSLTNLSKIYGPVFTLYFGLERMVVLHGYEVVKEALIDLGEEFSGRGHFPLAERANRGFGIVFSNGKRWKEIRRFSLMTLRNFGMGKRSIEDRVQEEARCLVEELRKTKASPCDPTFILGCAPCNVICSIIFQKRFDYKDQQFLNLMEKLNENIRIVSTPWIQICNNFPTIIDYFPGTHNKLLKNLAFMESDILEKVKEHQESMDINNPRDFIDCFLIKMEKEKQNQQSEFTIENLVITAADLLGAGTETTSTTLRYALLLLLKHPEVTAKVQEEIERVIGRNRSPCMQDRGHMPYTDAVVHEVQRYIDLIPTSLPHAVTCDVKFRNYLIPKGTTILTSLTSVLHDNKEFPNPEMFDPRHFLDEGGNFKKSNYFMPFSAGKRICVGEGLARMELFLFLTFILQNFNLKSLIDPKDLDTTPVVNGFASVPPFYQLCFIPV

SMILES: CC(C)=CCC[C@](C)(O[C@@H]1O[C@H](CO)[C@@H](O)[C@H](O)[C@H]1O)[C@H]1CC[C@]2(C)[C@@H]1[C@H](O)C[C@@H]1[C@@]3(C)CC[C@H](O[C@@H]4O[C@H](CO)[C@@H](O)[C@H](O)[C@H]4O[C@@H]4O[C@H](CO)[C@@H](O)[C@H](O)[C@H]4O)C(C)(C)[C@@H]3CC[C@]12C [Compound D2, Ginsenoside Rd]
- inhibition type (smallest AIC and SC) (CYP2B6; CYP2B6): Noncompetitive inhibition
- Ki (CYP2B6; CYP2B6, competitive model): 10.2 ± 2.1 µM
- Ki (CYP2B6; CYP2B6, mixed-type model): 36.3 ± 10.2 µM
- α (CYP2B6; CYP2B6, mixed-type model): 1.0 ± 0.4
- Ki (CYP2B6; CYP2B6, noncompetitive model): 37.2 ± 2.3 µM
- Cmax/Ki ([I]/Ki) (CYP2B6; CYP2B6, selected model, rat plasma Cmax): 0.02
- IC50 (CYP2B6; bupropion 100 μM, read-out: IC50 against CYP2B6): 20.2 µM
- IC50 (CYP2B6; recombinant isozyme, mean ± SD of triplicate, unit not given (IC50 classes in μM), read-out: IC50 towards CYP2B6): 20.2 ± 12.4 µM
- IC50 (CYP2C19): > 100 µM
- inhibition type (smallest AIC and SC) (CYP3A4; CYP3A4): Noncompetitive inhibition
- Ki (CYP3A4; CYP3A4, competitive model): 8.7 ± 2.3 µM
- Ki (CYP3A4; CYP3A4, mixed-type model): 44.2 ± 16.2 µM
- α (CYP3A4; CYP3A4, mixed-type model): 0.6 ± 0.3
- Ki (CYP3A4; CYP3A4, noncompetitive model): 32.8 ± 2.2 µM
- Cmax/Ki ([I]/Ki) (CYP3A4; CYP3A4, selected model, rat plasma Cmax): 0.02
- IC50 (CYP3A4; nifedipine 40 μM): 41 µM
- IC50 (CYP3A4; recombinant isozyme, mean ± SD of triplicate, unit not given (IC50 classes in μM)): 41 ± 25.8 µM
- At -80 °C for 48 h, Mean±SD ([1]; nominal conc. 20 nM): 20.86 ± 2.70 nM
- At -80 °C for 48 h, RE ([1]; nominal conc. 20 nM): 13.40%
- Extracted samples at 8 °C for 18 h, Mean±SD ([1]; nominal conc. 20 nM): 21.52 ± 1.04 nM
- Extracted samples at 8 °C for 18 h, RE ([1]; nominal conc. 20 nM): 11.29%
- Short-term stability at room temperature for 6 h, Mean±SD ([1]; nominal conc. 20 nM): 20.41 ± 1.88 nM
- Short-term stability at room temperature for 6 h, RE ([1]; nominal conc. 20 nM): -8.78%
- Three freeze-thaw cycles (-80 °C ↔ 23 °C), Mean±SD ([1]; nominal conc. 20 nM): 21.38 ± 0.85 nM
- Three freeze-thaw cycles (-80 °C ↔ 23 °C), RE ([1]; nominal conc. 20 nM): 11.74%
- At -80 °C for 48 h, Mean±SD ([1]; nominal conc. 100 nM): 94.76 ± 3.45 nM
- At -80 °C for 48 h, RE ([1]; nominal conc. 100 nM): -9.18%
- Extracted samples at 8 °C for 18 h, Mean±SD ([1]; nominal conc. 100 nM): 93.92 ± 4.07 nM
- Extracted samples at 8 °C for 18 h, RE ([1]; nominal conc. 100 nM): -9.39%
- Short-term stability at room temperature for 6 h, Mean±SD ([1]; nominal conc. 100 nM): 96.61 ± 5.06 nM
- Short-term stability at room temperature for 6 h, RE ([1]; nominal conc. 100 nM): -8.93%
- Three freeze-thaw cycles (-80 °C ↔ 23 °C), Mean±SD ([1]; nominal conc. 100 nM): 101.66 ± 11.99 nM
- Three freeze-thaw cycles (-80 °C ↔ 23 °C), RE ([1]; nominal conc. 100 nM): 13.24%
- At -80 °C for 48 h, Mean±SD ([1]; nominal conc. 400 nM): 419.98 ± 19.52 nM
- At -80 °C for 48 h, RE ([1]; nominal conc. 400 nM): 10.54%
- Extracted samples at 8 °C for 18 h, Mean±SD ([1]; nominal conc. 400 nM): 411.97 ± 35.80 nM
- Extracted samples at 8 °C for 18 h, RE ([1]; nominal conc. 400 nM): 9.32%
- Short-term stability at room temperature for 6 h, Mean±SD ([1]; nominal conc. 400 nM): 362.78 ± 5.91 nM
- Short-term stability at room temperature for 6 h, RE ([1]; nominal conc. 400 nM): -10.80%
- Three freeze-thaw cycles (-80 °C ↔ 23 °C), Mean±SD ([1]; nominal conc. 400 nM): 397.28 ± 35.89 nM
- Three freeze-thaw cycles (-80 °C ↔ 23 °C), RE ([1]; nominal conc. 400 nM): 9.66%
- IC50 (UGT1A1): > 100 µM
- IC50 (CYP1A2): > 100 µM
- IC50 (CYP2C9): > 100 µM
